Experimental data as given in the supplement of paper PMC10949913.

Assays:
Experiment in all cases: area under concentration-response curve (viability) (AUC (a.u.)); higher = less active
Details in all cases: 48 h
NCI-H295R = system: NCI-H295R
In short: (§1)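 Three adrenocortical carcinoma cell lines were exposed for 48 h to library compounds at 11 concentrations in 1,536-well plates, then read by CellTiter-Glo luminescence. Signals were scaled per plate against vehicle and empty-well controls. From fitted concentration-response curves of inhibitory or non-responding classes alone, AC50 and area under the curve were obtained.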

CU-ACC2 = system: CU-ACC2
In short: as §1

CU-ACC1 = system: CU-ACC1
In short: as §1

SMILES | area under concentration-response curve (NCI-H295R) | area under concentration-response curve (CU-ACC2) | area under concentration-response curve (CU-ACC1)
CC(C)(C(=O)NCC(F)(F)C(F)(F)F)C(=O)N[C@@H]1C(=O)Nc2ccccc2-c2ccccc21 | 459 | 500 | 413
Nc1nc(N)c2nc(-c3cccc(O)c3)c(-c3cccc(O)c3)nc2n1 | 483 | 499 | 448
O=C(c1c(F)ccc(N[S+](=O)([O-])N2CC[C@@H](F)C2)c1F)c1c[nH]c2ncc(-c3cnc(C4CC4)nc3)cc12 | 474 | 574 | 470
CN1CCN2c3ncccc3Cc3ccccc3C2C1 (stereo not given) | 556 | 579 | 494
Cc1[nH]c(/C=C2\C(=O)Nc3ccc(F)cc32)c(C)c1C(=O)NC[C@H](O)CN1CCOCC1 | 539 | 601 | 525
COc1nc(-c2ccc3c(c2)OCO3)n(-c2ccc(NC(=O)CSc3ccccc3)cc2)n1 | 573 | 611 | 408
Cc1[nH]nc(C(F)(F)F)c1Cc1sc2c(c1C(=O)N1C[C@](C)(O)CO1)c(=O)n(C)c(=O)n2C(C)C | 509 | 552 | 431
CCC(C)CNCC(=O)N1CCc2sccc2C1c1cccc(C)n1 (stereo not given) | 571 | 622 | 531
O=C(O)CCn1c2c(c3ccccc31)C[C@H](N[S+](=O)([O-])c1ccc(F)cc1)CC2 | 496 | 540 | 445
CC(C)(C)Sc1c(CC(C)(C)C(=O)O)n(Cc2ccc(Cl)cc2)c2ccc(OCc3ccc4ccccc4n3)cc12 | 554 | 624 | 578
C[C@]12CC[C@@H]3c4ccc(OC(=O)N(CCCl)CCCl)cc4CC[C@H]3[C@@H]1CC[C@@H]2OP(=O)([O-])[O-] | 533 | 466 | 489
CC1(C)CCC(C)(C)c2cc(NC(=O)c3ccc(C(=O)O)cc3)ccc21 | 443 | 495 | 468
O[C@@H]1C\C(=C/C(O)C1O)C(O)=O (stereo not given in full) | 581 | 614 | 512
CCn1nc(C2CCN(C(=O)CCO)CC2)nc1-c1cnc(N)c(-c2nnc(C(C)(C)C)o2)n1 | 507 | 504 | 387
C[C@H](CCC(=O)O)[C@H]1CC[C@H]2[C@@H]3[C@H](O)C[C@@H]4C[C@H](O)CC[C@]4(C)[C@H]3CC[C@]12C | 485 | 558 | 477
O=c1oc2cc(O)ccc2s1 | 503 | 482 | 502
COc1cc(-c2cc(-c3ccc(N4CCNCC4)cc3)cnc2C)cc(OC)c1OC | 556 | 585 | 548
C=CCN(/C=C1\C(=O)O[C@@H](COC)[C@]2(C)C1=C(O)C(=O)C1=C2[C@@H](OC(C)=O)C[C@]2(C)C(=O)CC[C@H]12)CC=C | 401 | 385 | 340
COC1=C(OCCCOC2=C(OC)C=C3C(=O)N4CC(=C)C[C@H]4\C=N/C3=C2)C=C5\N=C/[C@@H]6CC(=C)CN6C(=O)C5=C1 | 444 | 404 | 320
Cc1ccc(C)c(OCCCC(C)(C)C(=O)O)c1 | 572 | 661 | 569
O=C1N(c2ccccc2)c2ccccc2C1(Cc1ccncc1)Cc1ccncc1 | 504 | 543 | 448
CC1CNc2c(cccc2[S+](=O)([O-])N[C@@H](CCCNC(=N)N)C(=O)N2CC[C@@H](C)C[C@@H]2C(=O)O)C1 (stereo not given in full) | 507 | 547 | 502
COc1ccc([C@@H](O)[C@@H](C)Oc2ccc([C@H]3O[C@H](c4ccc(O[C@H](C)[C@H](O)c5ccc(OC)c(OC)c5)c(OC)c4)[C@H](C)[C@H]3C)cc2OC)cc1OC | 479 | 575 | 269

SMILES | area under concentration-response curve (NCI-H295R) | area under concentration-response curve (CU-ACC2) | area under concentration-response curve (CU-ACC1)
O=C1\C=C/C[C@@H]2[C@H]3CCCN4CCC[C@@H](CN12)[C@@H]34 | 546 | 509 | 541
CCOc1ccccc1N/N=C1/C(=O)N(c2nc(-c3ccccc3)cs2)N=C1C | 570 | 639 | 569
Cc1c(Cn2c(C)nc3c(C(=O)O)cc(N4CCOCC4)cc32)cccc1C(F)(F)F | 519 | 524 | 444
CCCOc1ccc(C(=O)OCCN(CC)CC)cc1N | 481 | 530 | 377
Nc1nc(Cl)nc2c1ncn2[C@H]1C[C@H](O)[C@@H](CO)O1 | 537 | 601 | 558
CC(=O)N1c2ccc(-c3ccc(C(=O)O)cc3)cc2[C@H](Nc2ccc(Cl)cc2)C[C@@H]1C | 497 | 548 | 380
CCN1/C(=C/C(C)=O)Sc2ccc(OC)cc21 | 515 | 569 | 467
N[S+](=O)([O-])c1cc2c(cc1Cl)NC(C(Cl)Cl)N[S+]2(=O)[O-] (stereo not given) | 536 | 591 | 477
CC(C)[C@H]1C(=O)N[C@@H](CCCN=C(N)N)C(=O)NCC(=O)N[C@@H](CC(=O)O)C(=O)N[C@H](Cc2ccccc2)C(=O)N1C | 601 | 624 | 443
N[C@@H]1CN(CC12CC2)C3=C(F)C=C4C(=O)\C(=C/N([C@@H]5C[C@@H]5F)C4=C3Cl)C(O)=O | 381 | 426 | 390
CN1C(=O)CC[S+](=O)([O-])C1c1ccc(Cl)cc1 (stereo not given) | 572 | 534 | 553
O=C1NC(=O)/C(=C/c2cccc(C(F)(F)F)c2)S1 | 449 | 511 | 463
CO[C@H]1/C=C/O[C@@]2(C)Oc3c(C)c(O)c4c(O)c(c5c(nc6cc(C)ccn65)c4c3C2=O)NC(=O)/C(C)=C\C=C\[C@H](C)[C@H](O)[C@@H](C)[C@@H](O)[C@@H](C)[C@H](OC(C)=O)[C@@H]1C | 529 | 557 | 475
CC(=O)Nc1ccc(O)cc1 | 445 | 467 | 348
Clc1cc2c(NC3CCCC3)nnc(-c3ccncc3)c2cc1Cl | 518 | 609 | 581
Nc1cc(COc2c(Cl)cc(C[C@H](N)C(=O)O)cc2Cl)c2oc(-c3ccccc3)nc2c1 | 588 | 577 | 488
CN1C[C@@H]2c3ccccc3Oc3ccc(Cl)cc3[C@H]2C1 | 554 | 525 | 553
NC(=O)c1cnccn1 | 382 | 301 | 346
c1ccc(CNCc2ccc(CN3CCCNCCNCCCNCC3)cc2)nc1 | 542 | 601 | 514
Nc1cc(c(cc1S(=O)(N)=O)S(N)(=O)=O)C(/Cl)=C(/Cl)Cl | 531 | 590 | 505
CC(C)(O)C(=O)Nc1ccc([N+](=O)[O-])c(C(F)(F)F)c1 | 537 | 602 | 505
COC1=C(NC2=NC=C(Cl)C(=N2)N[C@@H]3[C@H]\4C[C@@H](\C=C4)[C@H]3C(N)=O)C=CC5=C1CCC(CC5)N6CCOCC6 (stereo not given in full) | 460 | 600 | 526
